Legend:
[1] = human
[2] = human; remark: listed apart in the source
[3] = human; remark: listed apart in the source
[4] = human; remark: listed apart in the source
[5] = human; remark: listed apart in the source
[6] = human; remark: listed apart in the source
[7] = human, serum, 4383 h
[8] = human; remark: listed apart in the source
[9] = human; remark: listed apart in the source
[10] = human; remark: listed apart in the source
[11] = human, serum
[12] = human; remark: listed apart in the source
[13] = human, serum; remark: listed apart in the source
[14] = Highest frequency of acute liver toxicity observed during clinical trials, expressed as a percentage. [column '% AIGUE' in source]; details: human
[15] = Highest frequency of moderate liver toxicity observed during clinical trials, expressed as a percentage. [column '% BIOL' in source]; details: human
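For Hepatotoxicity (association with vascular disease) in this document: count of indexed literature references reporting vascular liver injury in humans, e.g. peliosis hepatitis, hepatic veno-occlusive disease or Budd-Chiari syndrome.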
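For Hepatotoxicity (benign tumour) in this document: value is a count of indexed literature references citing a benign tumour confirmed by histopathology.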
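For Hepatotoxicity (choleostasis) in this document: human cholestatic liver injury, shown by histopathology or by peak ALT or AST elevation over alkaline phosphatase ratio below 2, value counts indexed literature reports.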
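For Hepatotoxicity (chronic liver disease) in this document: chronic liver injury confirmed by histopathology or persistently raised serum aminotransferase activity beyond 6 months, value given as the count of indexed literature references.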
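For Hepatotoxicity (cirrhosis) in this document: value is a count of indexed literature references reporting cirrhosis confirmed by histopathology.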
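For Hepatotoxicity (cytolytic) in this document: human cytolytic liver injury, shown by histopathology or by a ratio above 5 of peak ALT or AST elevation to alkaline phosphatase elevation, value counts indexed references.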
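For Hepatotoxicity (granulomatous hepatitis) in this document: value is a count of indexed literature references reporting granulomatous liver disease confirmed by histopathology.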
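For Hepatotoxicity (malignant tumour) in this document: malignant tumour confirmed by histopathology, value gives the count of indexed literature references reporting it.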
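For Hepatotoxicity (severe hepatitis) in this document: human clinical data: severe hepatitis, meaning potentially life-threatening liver failure or clinically observed cases, the value counts how many indexed literature references report it.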
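For Hepatotoxicity (steatosis) in this document: steatosis confirmed by histopathology, value is the count of indexed references.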

Row | Compound | Hepatotoxicity (benign tumour) [1] | Hepatotoxicity (association with vascular disease) [2] | Hepatotoxicity (steatosis) [3] | Hepatotoxicity (animal toxicity known) [4] | Hepatotoxicity (malignant tumour) [5] | Hepatotoxicity (granulomatous hepatitis) [6] | Hepatotoxicity (chronic liver disease) [7] | Hepatotoxicity (cytolytic) [8] | Hepatotoxicity (cirrhosis) [9] | Hepatotoxicity (choleostasis) [10] | Hepatotoxicity (acute) [11] | Hepatotoxicity (severe hepatitis) [12] | Hepatotoxicity (moderate) [13] | Hepatotoxicity (acute) [14] [%] | Hepatotoxicity (moderate) [15] [%] | further results
1 | CC1(C)[C@H](C(=O)O)N2C(=O)C[C@H]2S1(=O)=O.CCN1CCN(C(=O)N[C@@H](C(=O)N[C@@H]2C(=O)N3C(C(=O)O)=C(CSc4nnnn4C)CS[C@H]23)c2ccc(O)cc2)C(=O)C1=O | 0 | 0 | 0 | yes | 0 | 0 | 0 | 0 | 0 | 0 |  |  |  |  |  | 
2 | Cc1cn([C@H]2CC[C@@H](CO)O2)c(=O)[nH]c1=O | 0 | 0 | 0 | yes | 0 | 0 | 0 | 0 | 0 | 0 | 0 | 0 | 1 | 0 | 30 | 
3 | CN(C)[C@@H]1C(O)=C(C(N)=O)C(=O)[C@@]2(O)C(O)=C3C(=O)c4c(O)ccc(Cl)c4[C@@](C)(O)[C@H]3C[C@@H]12 [CHLORTETRACYCLINE] | 0 | 0 | 3 | yes | 0 | 0 | 0 | 1 | 0 | 1 | 4 | 0 | 0 | 0 | 0 | 
4 | CC(C)/N=c1\cc2n(-c3ccc(Cl)cc3)c3ccccc3nc-2cc1Nc1ccc(Cl)cc1 [CLOFAZIMINE] | 0 | 0 | 0 | yes | 0 | 0 | 0 | 0 | 0 | 1 | 1 | 0 | 2 | 5.6 | 16 | 
5 | N#CN [CYANAMIDE] | 0 | 0 | 0 | yes | 0 | 0 | 11 | 0 | 2 | 2 | 2 | 0 | 0 | 0 | 0 | 
6 | NC[C@@H]1CC[C@@H](N)[C@@H](O[C@H]2[C@H](O)[C@@H](O[C@H]3O[C@H](CO)[C@@H](O)[C@H](N)[C@H]3O)[C@H](N)C[C@@H]2N)O1 [DIBEKACIN] | 0 | 0 | 0 | yes | 0 | 0 | 0 | 0 | 0 | 0 | 0 | 0 | 1 | 0 | 13.7 | 
7 | C[C@]12CC[C@@H]3c4ccc(O)cc4CC[C@H]3[C@@H]1CC[C@@H]2O [ESTRADIOL] | 0 | 0 | 0 | yes | 0 | 0 | 0 | 0 | 0 | 1 | 1 | 0 | 0 | 0 | 0 | 
8 | CC(=O)O[C@]1(C(C)=O)CC[C@H]2[C@@H]3C=C(C)C4=CC(=O)CC[C@]4(C)[C@H]3CC[C@@]21C [MEGESTROL ACETATE] | 0 | 0 | 0 | yes | 0 | 0 | 0 | 1 | 0 | 0 | 1 | 0 | 4 | 2.7 | 12.8 | 
9 | O=C1Nc2ccc(Cl)cc2C(c2ccccc2)=NC1O (stereo not given) [OXAZEPAM] | 0 | 1 | 0 | yes | 0 |  | 0 |  | 0 |  | 0 |  | 0 |  |  | Hepatotoxicity (granulomatous hepatitis) ([6]; Liver): 0; Hepatotoxicity (severe hepatitis) ([12]; Liver): 0; Hepatotoxicity (cytolytic) ([8]; Liver): 0; Hepatotoxicity (acute) ([14]; Liver): 0%; Hepatotoxicity (choleostasis) ([10]; Liver): 0; Hepatotoxicity (moderate) ([15]; Liver): 0%
10 | Cc1[nH]cnc1CSCCNc1ncc(Cc2ccc3c(c2)OCO3)c(=O)[nH]1 [OXMETIDINE] | 0 | 0 | 0 | yes | 0 | 0 | 0 | 0 | 0 | 0 | 1 | 0 | 1 | 0.1 | 0 | 
11 | CCOC(=O)C1(c2ccccc2)CCN(CCC(O)c2ccccc2)CC1 (stereo not given) [PHENOPERIDINE] | 0 | 0 | 0 | yes | 0 | 0 | 0 | 0 | 0 | 1 | 1 | 0 | 0 | 0 | 0 | 
12 | O=C(OC[C@H]1O[C@@H](OC(=O)c2cc(O)c(O)c(OC(=O)c3cc(O)c(O)c(O)c3)c2)[C@H](OC(=O)c2cc(O)c(O)c(OC(=O)c3cc(O)c(O)c(O)c3)c2)[C@@H](OC(=O)c2cc(O)c(O)c(OC(=O)c3cc(O)c(O)c(O)c3)c2)[C@@H]1OC(=O)c1cc(O)c(O)c(OC(=O)c2cc(O)c(O)c(O)c2)c1)c1cc(O)c(O)c(OC(=O)c2cc(O)c(O)c(O)c2)c1 [TANNIC ACID] | 0 | 0 | 0 | yes | 0 | 0 | 0 | 13 | 0 | 0 | 13 | 8 | 0 | 0 | 0 | 
13 | CC[C@]1(O)C[C@@H]2CN(CCc3c([nH]c4ccccc34)[C@@](C(=O)OC)(c3cc4c(cc3OC)N(C)[C@H]3[C@@](O)(C(N)=O)[C@H](O)[C@]5(CC)C=CCN6CC[C@]43[C@@H]65)C2)C1 [VINDESINE] | 0 | 0 | 0 | yes | 0 | 0 | 0 | 0 | 0 | 0 | 0 | 0 | 2 | 0 | 9.1 | 
14 | POVIDONE-IODINE | 0 | 0 | 0 | yes | 0 | 0 | 0 | 0 | 0 | 0 | 2 | 0 | 2 | 0 | 80 | 
